Measured values from publication PMC9928118, “Funneling modulatory peptide design with generative models: Discovery and characterization of disruptors of calcineurin protein-protein interactions” (PLOS Computational Biology, 2023).
Blank lines part the entries; values can stand above or below the sequence they belong to.

Tested on: GST-tagged Cn
Experiment: PEPperPRINT peptide microarray binding assay with GST-tagged Cn
Source text: We then estimated in-silico the binding strength of the various peptides to Cn by template-based docking followed by flexible backbone refinement using Modeller and PepCrawler (Figs 4 and S4). In parallel, we performed a medium-throughput qualitative binding assay using a PEPperPRINT peptide microarray to evaluate the direct binding of Cn to selected peptides (Figs 4 and S5, S3 Data).
Fig 4 Medium-throughput filtering by structural modeling and microarray screening. (a) Depiction of the structural modeling protocol: after alignment to the known PxIxIT binding site, an efficient flexible backbone structure refinement algorithm is applied to estimate the docking energy. […] (c) Coefficients of the equivalent single-site model fitted by sparse linear regression, shown in weight logo representation. […] Colors indicate physical property (black = hydrophobic, red = negatively charged, etc.). (d) Per-gene distribution of docking scores across natural fragments (lower is better). […] (e) Overview of the microarray screening. Peptides are printed on the chip (two circles per peptide). After pouring of Cn and subsequent washing, fluorescent-tagged, a Cn-targeting antibody is overlaid and an image is taken. Fluorescent spots indicate strong Cn binders. (f) Scatter plot of the sequence likelihood (normalized by length, higher is better) against fluorescence level (higher is better, see Methods for details of the data analysis).
In parallel, selected peptides were tested for Cn binding on a chip microarray (PEPperPRINT). 786 peptides were printed on the chip and were incubated with GST-tagged Cn overnight at 4°C. Following extensive washing, binding was detected by applying a fluorescently labeled (Alexa-Fluor 647) GST antibody. […] The experiment was repeated five times, and Z-normalized fluorescence levels were determined following post-processing of the raw data (Methods, S5A, S5B and S5C Fig).
The peptide array was prepared as a custom array pepper chip (PEPperPRINT). For binding detection, 1mg/ml GST-tagged Cn was incubated overnight on the microarray at 4°C. Following extensive washing, fluorescently labeled (Alexa-Fluor 647) GST-antibody. […] The experiment was repeated five times. Each scan was analyzed as follows: a grid was overlaid using the border HA markers to determine regions of interest (ROI) for each peptide (two ROIs per peptide) and the logarithm of the average fluorescence intensity was computed for each ROI. […] To remove spatial artifacts, a position-dependent baseline fluorescence was fitted using a second-order polynomial, and subtracted to the fluorescence. Fluorescence levels were next averaged over the two ROI for each peptide and Z-normalized. […] The Z-scores were averaged over the five repetitions to yield one fluorescence score per peptide.

[1] = max over the chip locations listed for the peptide (two spots)
[2] = mean over the chip locations listed for the peptide (two spots)
[3] = GST-tagged Cn, max over the spots named in Location on chip
[4] = GST-tagged Cn, mean over the spots named in Location on chip
[5] = GST-tagged Cn, max over the chip spots listed under Location on chip
[6] = GST-tagged Cn, mean over the chip spots listed under Location on chip
[7] = max over the spots listed under Location on chip
[8] = mean over the spots listed under Location on chip
[9] = GST-tagged Cn, max over the spots on the chip (two locations)
[10] = GST-tagged Cn, mean over the spots on the chip (two locations)
[11] = GST-tagged Cn, max over the chip locations
[12] = GST-tagged Cn, mean over the chip locations

- Chip Fluorescence (max) [1]: 7.244
- Chip Fluorescence (mean) [2]: 0.4206
Sequence: GAWGLNKSGLFLINEV [Seqshuffled_9399]

- Chip Fluorescence (max) [7]: 2.997
- Chip Fluorescence (mean) [8]: 0.7866
Sequence: RTPGTFLLTLRGHKKQ [SeqRBMlowT_7783]

- Chip Fluorescence (max) [11]: 0.2778
- Chip Fluorescence (mean) [12]: -0.136
Sequence: LNLEIPEVRLNIISAL [SeqRBMlowT_8463]

- Chip Fluorescence (max) [11]: 0.05866
- Chip Fluorescence (mean) [12]: -0.8616
Sequence: RNPGTALLTLRGHKKQ [SeqRBMlowT_5859]

- Chip Fluorescence (max) [11]: 0.1471
- Chip Fluorescence (mean) [12]: -0.7824
Sequence: TFWTNPQFRVTVTEPD [SeqRBMlowT_4663]

- Chip Fluorescence (max) [7]: 2.9488
- Chip Fluorescence (mean) [8]: 0.108
Sequence: TFWTNPQFRITLEDVD [SeqRBMlowT_966]

- Chip Fluorescence (max) [9]: 1.167
- Chip Fluorescence (mean) [10]: 0.2257
Sequence: LKDESPEVRLNIISKL [SeqRBMlowT_3831]

- Chip Fluorescence (max) [7]: 2.865
- Chip Fluorescence (mean) [8]: 0.3097
Sequence: RAYINPFMQFQIGGNH [SeqRBMlowT_4074]

- Chip Fluorescence (max) [9]: 1.204
- Chip Fluorescence (mean) [10]: 0.3347
Sequence: HVSSSPDITITPTQHR [SeqRBMlowT_702]

- Chip Fluorescence (max) [5]: 0.4586
- Chip Fluorescence (mean) [6]: 0.04317
Sequence: GTESTPSVVVHVCDSD [SeqRCN1_Desmodus_rotundus]

- Chip Fluorescence (max) [7]: 3.279
- Chip Fluorescence (mean) [8]: -0.004599
Sequence: VFAQEDYFLFPVILKE [Seqrandom_9943]

- Chip Fluorescence (max) [11]: -0.2197
- Chip Fluorescence (mean) [12]: -1.424
Sequence: STSSLPTFSFSSPLPT [SeqRBMlowT_898]

- Chip Fluorescence (max) [7]: 2.878
- Chip Fluorescence (mean) [8]: -0.2496
Sequence: PSDDQPGIIVHPAEED [SeqRBMlowT_1217]

- Chip Fluorescence (max) [9]: 1.098
- Chip Fluorescence (mean) [10]: -0.565
Sequence: AKDDPPKIQVHPPEED [SeqRBMlowT_9786]

- Chip Fluorescence (max) [3]: 1.609
- Chip Fluorescence (mean) [4]: 0.3772
Sequence: RNPGQALLTLRGHSKQ [SeqRBMlowT_6189]

- Chip Fluorescence (max) [1]: 4.098
- Chip Fluorescence (mean) [2]: 0.694
Sequence: TFWANPQYKIHLEEED [SeqRBMlowT_4653]

- Chip Fluorescence (max) [1]: 18.5398
- Chip Fluorescence (mean) [2]: 3.2425
Sequence: ADEAIPEIVISKPEEP [SeqRBMlowT_2534]

- Chip Fluorescence (max) [1]: 4.66
- Chip Fluorescence (mean) [2]: 1.641
Sequence: LCWFLDYRVVLPFFAY [Seqshuffled_7970]

- Chip Fluorescence (max) [11]: 0.2772
- Chip Fluorescence (mean) [12]: -0.7766
Sequence: HVSSSPDITVTPTQHR [SeqRBMlowT_701]

- Chip Fluorescence (max) [7]: 2.624
- Chip Fluorescence (mean) [8]: 0.4288
Sequence: DSSANPEITITPAELP [SeqRBMlowT_4460]

- Chip Fluorescence (max) [5]: 0.3855
- Chip Fluorescence (mean) [6]: -0.6772
Sequence: TFWTNPQYVITVTDPD [SeqRBMlowT_3207]

- Chip Fluorescence (max) [3]: 1.458
- Chip Fluorescence (mean) [4]: -0.38
Sequence: PQMAPPAINIDFAPTN [SeqRBMlowT_2475]

- Chip Fluorescence (max) [5]: 0.973
- Chip Fluorescence (mean) [6]: 0.3644
Sequence: PSPDQPGIVVHTCEDD [SeqRBMlowT_9795]

- Chip Fluorescence (max) [3]: 1.659
- Chip Fluorescence (mean) [4]: -0.5285
Sequence: TFWTNPQFTITLEEPD [SeqRBMlowT_1494]

- Chip Fluorescence (max) [9]: 1.002
- Chip Fluorescence (mean) [10]: 0.1299
Sequence: GLCDSSKVNLVDAGPV [Seqshuffled_9731]

- Chip Fluorescence (max) [7]: 3.22
- Chip Fluorescence (mean) [8]: 0.7373
Sequence: TFWTNPQYVITLEDPD [SeqRBMlowT_239]

- Chip Fluorescence (max) [5]: 0.7684
- Chip Fluorescence (mean) [6]: -0.05563
Sequence: RAYINPFMQFTDDGRR [SeqRBMlowT_7881]

- Chip Fluorescence (max) [11]: -0.2537
- Chip Fluorescence (mean) [12]: -3.06
Sequence: STSSLPTFSFSSPVPS [SeqRBMlowT_2358]

- Chip Fluorescence (max) [1]: 6.02
- Chip Fluorescence (mean) [2]: 1.294
Sequence: TFWTNPQYRLKLEDVD [SeqRBMlowT_929]

- Chip Fluorescence (max) [11]: 0.161
- Chip Fluorescence (mean) [12]: -1.962
Sequence: ADEAGPEIVITPTELP [SeqRBMlowT_3142]

- Chip Fluorescence (max) [7]: 2.6605
- Chip Fluorescence (mean) [8]: 0.5654
Sequence: TFWTNPQFKITLEELD [SeqRBMlowT_5669]

- Chip Fluorescence (max) [9]: 1.277
- Chip Fluorescence (mean) [10]: -0.2851
Sequence: GGPGTPGRQGGHLAPS [SeqRBMlowT_9820]

- Chip Fluorescence (max) [9]: 0.9886
- Chip Fluorescence (mean) [10]: -0.8988
Sequence: KKMSPPCINIDPAPTN [SeqRBMlowT_1811]

- Chip Fluorescence (max) [3]: 1.806
- Chip Fluorescence (mean) [4]: 0.4598
Sequence: PSDDQPGIVVHPCEED [SeqRBMlowT_365]

- Chip Fluorescence (max) [7]: 2.678
- Chip Fluorescence (mean) [8]: 0.9155
Sequence: GSETQPGIVVHVCEDD [SeqRBMlowT_1216]

- Chip Fluorescence (max) [7]: 3.317
- Chip Fluorescence (mean) [8]: 1.923
Sequence: AAGAGVGIVITVTEAE [SeqRBMlowT_180]

- Chip Fluorescence (max) [9]: 1.142
- Chip Fluorescence (mean) [10]: -0.04147
Sequence: TFWANPQFKIRLEEPD [SeqRBMlowT_2213]

- Chip Fluorescence (max) [7]: 2.618
- Chip Fluorescence (mean) [8]: 0.6288
Sequence: AGCTVNNYSTNFAEND [Seqshuffled_9821]

- Chip Fluorescence (max) [1]: 4.964
- Chip Fluorescence (mean) [2]: 1.374
Sequence: GTETTPSIVVHVCEDD [SeqRBMlowT_128]

The next lines start with the sequence.

Sequence: PALESPRIEITSYLGM [SeqNFATC1_Canis_lupus]
- Chip Fluorescence (max) [3]: 1.5159
- Chip Fluorescence (mean) [4]: -0.48

Sequence: RAYINPFMMFRSGGNK [SeqSFB3_Cordyceps_militaris]
- Chip Fluorescence (max) [5]: 0.6899
- Chip Fluorescence (mean) [6]: -0.6148

Sequence: KAYMCPYMDFQDGGRR [SeqRBM_4270]
- Chip Fluorescence (max) [7]: 3.135
- Chip Fluorescence (mean) [8]: 0.405

Sequence: TFWTNPQYKIKLEEPD [SeqRBMlowT_46]
- Chip Fluorescence (max) [5]: 0.956
- Chip Fluorescence (mean) [6]: -0.7275

Sequence: DAHACAVLGIGSFSLL [SeqRBM_9753]
- Chip Fluorescence (max) [9]: 1.031
- Chip Fluorescence (mean) [10]: -0.08931

Sequence: KHLDVPDIIITPPTPT [SeqC16orf74_Pan_troglodytes]
- Chip Fluorescence (max) [1]: 11.1628
- Chip Fluorescence (mean) [2]: 2.896

Sequence: TGWTNPQFKLRLENDP [SeqRBM_4269]
- Chip Fluorescence (max) [5]: 0.7861
- Chip Fluorescence (mean) [6]: -0.005549

Sequence: RNPERPKLHLQGHLVA [SeqRBM_9016]
- Chip Fluorescence (max) [9]: 1.316
- Chip Fluorescence (mean) [10]: -0.7354

Sequence: ASTSTFPQQQTAHKKQ [SeqBOI2_Podospora_anserina]
- Chip Fluorescence (max) [11]: -0.0111
- Chip Fluorescence (mean) [12]: -1.452

Sequence: QPPQNPVATVSTAHHQ [SeqRBM_6519]
- Chip Fluorescence (max) [3]: 1.708
- Chip Fluorescence (mean) [4]: -0.008148

Sequence: RNPGSPTLELNGHSGG [SeqRBM_9695]
- Chip Fluorescence (max) [9]: 1.159
- Chip Fluorescence (mean) [10]: -0.3352

Sequence: GGPGTPGRPGIHSAPS [SeqRBM_5424]
- Chip Fluorescence (max) [3]: 1.6472
- Chip Fluorescence (mean) [4]: -0.88

Sequence: NFNPNPAVVLKIPQQR [SeqRBM_5953]
- Chip Fluorescence (max) [11]: -0.355
- Chip Fluorescence (mean) [12]: -1.487

Sequence: RSYINPFVTFLDHGHR [SeqSFB3_Blumeria_graminis]
- Chip Fluorescence (max) [5]: 0.7568
- Chip Fluorescence (mean) [6]: -0.5098

Sequence: GTMSPPDISITPPYAP [SeqRBM_3223]
- Chip Fluorescence (max) [11]: 0
- Chip Fluorescence (mean) [12]: -0.3136

Sequence: APSKITEVVVHECEVL [SeqRBM_4402]
- Chip Fluorescence (max) [3]: 1.576
- Chip Fluorescence (mean) [4]: -0.4054

Sequence: VSLYEDALGLGQFSLS [SeqRBM_4294]
- Chip Fluorescence (max) [7]: 2.638
- Chip Fluorescence (mean) [8]: 0.5735

Sequence: ADEAIPKIVIHPPEEP [SeqRBMlowT_1972]
- Chip Fluorescence (max) [7]: 3.233
- Chip Fluorescence (mean) [8]: -0.1428

Sequence: STAALPKFDFSNPHIS [SeqRBM_9234]
- Chip Fluorescence (max) [7]: 2.8681
- Chip Fluorescence (mean) [8]: 0.4605

Sequence: QTSCLPFPVVNSQEGQ [SeqRBM_2540]
- Chip Fluorescence (max) [9]: 1.036
- Chip Fluorescence (mean) [10]: -0.9088

Sequence: TFHLNPQYRITLEDPD [SeqCAPN11_Daphnia_magna_3]
- Chip Fluorescence (max) [3]: 1.7985
- Chip Fluorescence (mean) [4]: 0.6671

Sequence: GAPGTPSRWGTPLAPS [SeqRBM_851]
- Chip Fluorescence (max) [3]: 1.622
- Chip Fluorescence (mean) [4]: 0.7552

Sequence: PSMYQPHIIVKVAETE [SeqRBM_4049]
- Chip Fluorescence (max) [9]: 1.118
- Chip Fluorescence (mean) [10]: 0.1884

Sequence: ARSFCPHRQVLSCKPK [SeqRBM_8304]
- Chip Fluorescence (max) [1]: 4.921
- Chip Fluorescence (mean) [2]: 0.2408

Sequence: QAIYQDILGIGAFSGS [SeqRBM_285]
- Chip Fluorescence (max) [9]: 1.266
- Chip Fluorescence (mean) [10]: -0.8575

Sequence: SSRIQSKIVVNEPKQI [SeqRBM_7418]
- Chip Fluorescence (max) [11]: -0.3136
- Chip Fluorescence (mean) [12]: -1.152

Sequence: PKEDLPVITIDPASPQ [SeqNHE1_Pan_troglodytes]
- Chip Fluorescence (max) [5]: 0.9606
- Chip Fluorescence (mean) [6]: -0.5019
